According to US20210338662A1, “ALPHA-2-ADRENOCEPTOR SUBTYPE C (ALPHA-2C) ANTAGONISTS FOR THE TREATMENT OF SLEEP APNEA” (Bayer Aktiengeseilschaft, priority 2018, published 2021):

System: upper airway collapsibility in anaesthetized, spontaneously breathing pigs
Assay: pig model of obstructive sleep apnea (OSA): upper airway collapsibility under negative pressure
Assay type: in vivo, German Landrace pigs
Conditions: i.v. bolus 1.5 mg/kg then i.v. infusion 0.475 mg/kg/h for four hours
From the text: The therapeutic potential of the compounds of formula (I) according to the present invention in sleep apnea has been assessed preclinically in a pig model of obstructive sleep apnea (OSA).
Using negative pressure, it is possible to induce collapse and thus obstruction of the upper respiratory tract in anaesthetized, spontaneously breathing pigs (Wirth K. J. et al., Sleep 36(5) (2013) pp. 699-708).
German Landrace pigs are used for the model. The pigs are anaesthetized and tracheotomized. Two tracheal are inserted into the trachea, one into the rostral part and the other into the caudal part of the trachea. Using a connection piece, the rostral cannula is connected to a tube to the negative pressure device and to the distal tracheal cannula. The distal tracheal cannula is additionally connected to a tube with an open end to atmosphere via a connection piece that served for free tracheal breathing, circumventing the upper airway. By appropriate opening and clamping of those tubes breathing can be switched from nasal breathing to breathing through the caudal tracheal cannula, circumventing the upper airway, and the (isolated) upper airway can be connected to the negative pressure device, causing airflow in the inspiratory direction.
At certain points in time, the collapsibility of the upper respiratory tract is tested by having the pig breathe via the caudal cannula and applying negative pressures of −50, −100 and −150 cm water head (cm H2O) to the upper respiratory tract. This causes the upper respiratory tract to collapse, which manifests itself in an interruption of the airflow and a pressure drop in the tube system. This test is conducted prior to the administration of the test substance and at certain intervals after the administration of the test substance. An appropriately effective test substance can prevent this collapse of the respiratory tract in the inspiratory phase.
FIG. 1: Effect of i.v. bolus injection of 1.5 mg/kg followed by an i.v. infusion of 0.475 mg/kg/h for four hours of the α2-Adrenoceptor subtype C (alpha-2C) antagonists of formula (I) ((S)-1-((2,3-dihydrobenzo[b][1,4]dioxin-2-yl)methyl)-4-(3-(methoxymethyl)pyridin-2-yl)piperazine given at time point 0 min on upper airway collapsibility at different levels of negative pressure. Percentages of pigs with no collapse are given. Mean values.

[1] = all negative pressures of −50, −100 and −150 cm
[2] = time 0 min (time point of administration), mean values

COCc1cccnc1N1CCN(C[C@H]2COc3ccccc3O2)CC1 [(S)-1-((2,3-dihydrobenzo[b][1,4]dioxin-2-yl)methyl)-4-(3-(methoxymethyl)pyridin-2-yl)piperazine]
inhibited upper airway collapsibility: effect on upper airway collapsibility [1]
100%: Percent pigs without collaps −50 cm H2O (time 10 min) | Percent pigs without collaps −50 cm H2O (time 30 min) | Percent pigs without collaps −50 cm H2O (time 60 min) | Percent pigs without collaps −50 cm H2O (time 120 min) | Percent pigs without collaps −50 cm H2O (time 180 min) | Percent pigs without collaps −50 cm H2O (time 240 min) | Percent pigs without collaps −50 cm H2O (time 300 min) | Percent pigs without collaps −50 cm H2O (time 330 min) | Percent pigs without collaps −100 cm H2O (time 10 min) | Percent pigs without collaps −100 cm H2O (time 30 min) | Percent pigs without collaps −100 cm H2O (time 60 min) | Percent pigs without collaps −100 cm H2O (time 120 min) | Percent pigs without collaps −100 cm H2O (time 180 min) | Percent pigs without collaps −100 cm H2O (time 240 min) | Percent pigs without collaps −100 cm H2O (time 300 min) | Percent pigs without collaps −100 cm H2O (time 330 min) | Percent pigs without collaps −150 cm H2O (time 10 min) | Percent pigs without collaps −150 cm H2O (time 30 min) | Percent pigs without collaps −150 cm H2O (time 60 min) | Percent pigs without collaps −150 cm H2O (time 120 min) | Percent pigs without collaps −150 cm H2O (time 180 min) | Percent pigs without collaps −150 cm H2O (time 240 min) | Percent pigs without collaps −150 cm H2O (time 300 min) | Percent pigs without collaps −150 cm H2O (time 330 min)
0%: Percent pigs without collaps −50 cm H2O [2] | Percent pigs without collaps −100 cm H2O [2] | Percent pigs without collaps −150 cm H2O [2]
up to five: duration of inhibition of upper airway collapsibility [1]
